{"source": "paper PMC7851395", "about": "(British Journal of Cancer, 2020)", "key": {"PC-9 cells": {"test_system": "PC-9 cells", "assay": "MTT cytotoxicity assay, PC-9 cells", "assay_type": "cell-based", "details": "Homo sapiens, PC-9, 48 h, PC-9 cells, 48 h, MTT; read-out: IC50", "procedure": "(§1) The cytotoxicity and viability of human NSCLC cells and normal cells were determined by MTT assay. MTT assay was performed as described previously.[22] MTT assay was used to determine the cell cytotoxicity and viability in human NSCLC cells. Cells (5 × 10^3 cells/well) were plated in 96-well plates and attached overnight. After the proper treatment, the MTT solution was added at 25 µL/well and incubated at 37 °C for 4 h. The formazan crystals were dissolved in 150 µL of DMSO, and the optical density (OD) was measured using a Microplate Reader at 490 nm. The cell viability was calculated by the following formula: viability = (average OD values of treatment wells/average OD values of vehicle control wells) × 100%. And half-maximal inhibitory concentration (IC50) values were determined by GraphPad Pro Prism 7.0."}, "A549 cells": {"test_system": "A549 cells", "assay": "MTT cytotoxicity assay, A549 cells", "assay_type": "cell-based", "details": "Homo sapiens; A549 cells, 48 h, MTT; read-out: IC50", "procedure": "as §1"}, "human NSCLC cells": {"test_system": "human NSCLC cells", "assay": "Colony-formation assay", "assay_type": "cell-based", "details": "50, 100, 200 nM for 24 h, colonies after 7 days", "procedure": "The human NSCLC cells and normal cells were seeded at 1000 cells/well on six-well plates, placed in 5% CO2 atmosphere and cultured overnight at 37 °C. DMSO (Control) and acetyl-bufalin (50, 100, 200 nM) were added to the cells for 24 h. The fresh medium was replaced every 2 days to maintain the growth of cells for 7 days. Colonies were washed with phosphate-buffered saline (PBS), fixed with 4% paraformaldehyde at room temperature for 15 min, washed with purified water for three times and stained with Crystal violet for 10 min. Each experiment was in triplicate, and three independent experiments were carried out."}, "NIH mice": {"test_system": "NIH mice", "assay": "Acute toxicity test", "assay_type": "in vivo", "procedure": "In the acute toxicity test, 30 NIH mice (female, 8 weeks old) were randomly divided into three groups (n = 10), including vehicle group, bufalin group (30 mg/kg) and acetyl-bufalin group (30 mg/kg). The three groups received intraperitoneal injection only on the first day. All the mice were housed under 12 h light–dark cycles at 25 °C and free for water and diet. […] All the mice were sacrificed by cervical dislocation."}, "caspase-3": {"test_system": "caspase-3", "assay": "Caspase-3 activity assay", "assay_type": "cell-based", "details": "human NSCLC cells (H460, PC-9), 24 h", "procedure": "The caspase-3 assay was performed as described previously.[23] According to the manufacturer’s protocol, the activity of caspase‐3 was evaluated by using a caspase‐3 colorimetric assay kit (Abcam, Cambridge, UK). H460 and PC-9 cells were collected and resuspended in lysis buffer. After incubation on ice for 10 min, the cell lysate was centrifuged at 12,000 rpm for 10 min at 4 °C, and the protein concentration in the supernatants was measured using the Bradford dye method. The supernatants were incubated with a reaction buffer containing 200 µM devd-p-nitroanilide, for caspase‐3 in a caspase assay buffer at 37 °C with 10 mM dithiothreitol for 2 h. The activity of caspase-3 was determined by measuring the absorbance at 405 nm. Each experiment was done in triplicate for three independent experiments."}, "STAT3": {"test_system": "STAT3", "assay": "STAT3 luciferase-report assay", "assay_type": "cell-based, human", "details": "PC-9 and H460 cells, 0-200 nM, 12 h", "procedure": "STAT3 activation was detected by the STAT3 luciferase reporter plasmid (PGLSTAT3-LUC), as was previously described.[23] Simply put, PC-9 and H460 cells were seeded in 24-well plates and incubated for 24 h before transfection. The cells were grown to different densities and co-transfected with pGLSTAT3-Luc and pRL-TK (a plasmid encoding Renilla luciferase) for 6 h using Lipofectamine 3000 (Invitrogen, Carlsbad, CA, USA). Finally, the cells were treated with different concentrations of […] for 12 h. Luciferase activity was assessed by SpectraMax ID3 (Molecular Devices, San Jose, CA, USA). The inhibition of STAT3 activity by acetyl-bufalin was calculated as the ratio between the value of firefly and Renilla luciferase activity. Each experiment was done in triplicate in three independent experiments."}, "[1]": {"test_system": "P-CDK9, CDK9, P-STAT3 and S2 RNAPII", "assay": "Western blot of CDK9/STAT3 pathway proteins", "assay_type": "cell-based, human", "details": "H460 and PC-9 cells, 12 h; acetyl-bufalin 25-200 nM, SNS-032 200 nM", "procedure": "Tissue proteins were extracted with tissue protein lysate buffer. Cells were grown to different densities and extracted with cell protein lysate buffer. The protein was mixed with loading buffer and boiled for 10 min at 100 °C, then loaded and separated by 10% or 12% sodium dodecyl sulfate-polyacrylamide gel (SDS-PAGE) and then transferred onto a PVDF membrane blocking with 5% skim milk. The blots were incubated overnight with specific primary antibodies at 4 °C. On the second day, after washing with TBST (a mixture of tris-buffered saline (TBS) and Tween 20) three times, the […] membranes were incubated with horseradish peroxidase-conjugated secondary antibodies for 1 h. The immunoreactive bands were visualised with enhanced chemiluminescence reagent."}, "H460 and PC-9 cells": {"test_system": "H460 and PC-9 cells", "assay": "Cell proliferation in cells transfected with CDK9 siRNA or control siRNA", "assay_type": "cell-based, human", "procedure": "as §1\nThe siRNA targeting human CDK9 was purchased from Genepharma (Shanghai, China) with the following sequence: siCDK9-1: 5′-[…] TT-3′, siCDK9-2: 5′-[…]-3′, siCDK9-3: 5′-[…]-3′. Cells were transfected with 50 nM siRNA using Lipofectamine 3000 (Invitrogen, CA, USA) for 48 h."}, "H460 xenograft": {"test_system": "H460 xenograft", "assay_type": "in vivo, BALB/c nude mice", "details": "2 mg/kg i.p. every other day", "procedure": "All animal procedures were done accordingly with the Institutional laboratory animal research guidelines and were approved by Wenzhou Medical University Animal Policy and Welfare Committee. Female athymic BALB/c nude mice (5–6 weeks old) and immune-defective non-obese […] diabetic severe combined immunodeficiency (NOD-SCID) mice (6–8 weeks old) were purchased from the Vital River Experimental Animal Center (Beijing, China). All the mice were housed under 12 h light–dark cycles at 25 °C and free for water and diet. For the xenograft model, the H460 cells (5 × 10^6 cells were mixed with an equal volume of PBS and Matrigel in 100 μL) were implanted on the hind flank of nude mice. Once tumour volumes reached ~50 mm^3, 24 mice were divided into four experimental groups (six mice per group, no differences in mean body weights or tumour volumes between the groups) and intraperitoneal injection with 2 mg/kg SNS-032 (a recognised CDK9 inhibitor), bufalin and acetyl-bufalin every other day. Tumour volume was measured as V = (L × W × W)/2, in which L and W represent the length and width of tumour. Animals were killed by cervical dislocation once the tumour volume reached 1000 mm^3. The tumours, hearts, livers, kidneys and lungs were removed for use in the histology and western blot analysis."}}}
{"smiles": "CC(=O)OC1CCC2(C)C(CCC3C2CCC2(C)C(c4ccc(=O)oc4)CCC32O)C1", "note": "(stereo not shown) [acetyl-bufalin]", "values": [{"measurement": "IC50", "setting": "PC-9 cells", "value": 64, "unit": "nM"}, {"measurement": "IC50", "setting": "A549 cells", "value": 28.1, "unit": "nM"}, {"measurement": "NSCLC cell cloning ability", "setting": "human NSCLC cells", "value": "inhibited dose-dependently"}, {"measurement": "weight of the remaining mice", "setting": "NIH mice; 30 mg/kg single i.p., 14 days, compared with vehicle", "value": "stable"}, {"measurement": "mortality (mice died)", "setting": "NIH mice; 30 mg/kg single intraperitoneal injection, observed 14 days, n = 10", "value": "2/10"}, {"measurement": "BAX expression and caspase-3 activity", "setting": "caspase-3", "value": "dose-dependently increased"}, {"measurement": "P-STAT3 activation (luciferase reporter)", "setting": "STAT3", "value": "significantly inhibited"}, {"measurement": "P-CDK9, CDK9, P-STAT3 and S2 RNAPII expressions", "setting": "[1]", "value": "significantly dose-dependently decreased"}, {"measurement": "cell proliferation of siCDK9 cells", "setting": "H460 and PC-9 cells; H460 and PC-9 transfected with CDK9 siRNA1, 48 h", "value": "did not significantly affect"}, {"measurement": "cell proliferation of control siRNA cells", "setting": "H460 and PC-9 cells; H460 and PC-9 transfected with control siRNA, 48 h", "value": "hampered cell proliferation"}, {"measurement": "gross toxicities on hearts, livers, kidneys or lungs", "setting": "H460 xenograft; H&E staining", "value": "no gross toxicities"}, {"measurement": "tumour growth (weight and volume)", "setting": "H460 xenograft; compared with vehicle", "value": "significantly inhibited tumour growth"}, {"measurement": "comparison of inhibitory effect between treatments", "setting": "H460 xenograft; versus SNS-032 and bufalin", "value": "best inhibitory effect"}]}
